Reference: patent US12624067B2, “Cyclic peptide, cell scaffold material, cell separating material, and medium” (FUJIFILM Corporation, priority 2019, dated 2026)
Numbered stars: 1 amine (or outer) side, 2 acyl side, 3 side chain; on linkers, the order of the positions; unused ones are H or OH. Bridge positions count the residues as written; N and C are the ends. Square brackets hold non-standard residues; d marks the D form. Peptide text beside a SMILES is read from it. Pen = CC(C)(S)[C@H](N)C(=O)O; hCys = N[C@@H](CCS)C(=O)O; Orn = NCCC[C@H](N)C(=O)O; Dab = NCC[C@H](N)C(=O)O; X1 = O=C(C[*:1])[*:2]; X2 = O=C(C[*:2])[*:1]

How the values were obtained:
human integrin αvβ5 = human integrin αvβ5 (Homo sapiens, UniProt P06756+P18084); experiment: Evaluation of integrin binding property (surface plasmon resonance, Biacore 3000, immobilized cyclic peptide); conditions: peptide immobilized on CM5 sensor chip; human integrin αvβ5 30-1,000 nM, 25° C., HEPES buffer with 5 mM magnesium chloride; read-out: Integrin binding property (dissociation constant)
Description: A commercially available CM5 sensor chip (a carboxymethyl dextran introduction type, manufactured by GE Healthcare) was set in a surface plasmon resonance apparatus (product name: Biacore 3000, manufactured by GE Healthcare), the sensor was stabilized at a flow rate of 10 μL/min of a 4-(2-hydroxyethyl)-1-piperazineethanesulfonic acid (HEPES) buffer solution (20 mM HEPES-HCl, 150 mM NaCl, pH 7.4) for surface plasmon resonance (SPR), and 70 μL of a mixed aqueous solution of 0.2 M 1-(3-dimethylaminopropyl)-3-ethylcarbodiimide (EDC) and 0.04 M N-hydroxysuccinimide (NHS) was added thereto. Then, 300 μL of the sample solution of each of the above cyclic peptides diluted to 0.2 g/L with the HEPES buffer solution was supplied to the sensor chip, blocking treatment was subsequently carried out with an ethanolamine solution, and washing was carried out with a sodium hydroxide aqueous solution, whereby immobilization was carried out. However, only for the cyclic peptide 22, in which the number of lysine residues having an amino group as the immobilizing functional group was 1, the sample solution to be supplied to the sensor chip was set to 5,000 μL instead of 300 μL. Similarly; 70 μL of the mixed aqueous solution of 0.2 M EDC and 0.04 M NHS was added to another flow channel of the same sensor chip without immobilizing the sample, and then blocking treatment and washing treatment were carried out. Hereinafter, the obtained immobilization-treated sensor chip is referred to as an “immobilization-treated sensor chip A”.
After adding human integrin αvβ5 for 10 minutes at 25° C., which was diluted to 30 nM using a HEPES buffer solution to which magnesium chloride was added to 5 mM, in each flow channel of the immobilization-treated sensor chip A prepared in (1) above, the same HEPES buffer solution (containing 5 mM magnesium chloride) was allowed to flow as a running buffer for 30 minutes, and measurement was carried out with Biacore 3000.
Then, a regeneration treatment of removing human integrin αvβ5 was carried out by allowing a 0.5 M EDTA aqueous solution to flow through each flow channel for 10 minutes. Further, the above-described measurement process consisting of adding integrin for 10 minutes, allowing a running buffer to flow for 30 minutes, carrying out measurement with Biacore 3000, and carrying out regeneration treatment with 0.5 M EDTA aqueous solution was carried out in the same manner for 100 nM human integrin αvβ5, 300 nM human integrin αvβ5, and 1,000 nM human integrin αvβ5. Dissociation constant between the cyclic peptide and human integrin αvβ5 was calculated from the difference between the value measured by Biacore 3000 in the flow channel immobilized with the cyclic peptide and the value measured by Biacore 3000 in the flow channel unimmobilized with the cyclic peptide, in a case where each concentration of human integrin αvβ5 was allowed to flow; and the integrin binding property was evaluated according to the following evaluation standards. It is preferable that the evaluation result satisfies the evaluation standard A, B, or C.

[1] = Evaluation of molecule stability (alkali treatment, LC/MS residual rate); format: physicochemical; conditions: 500 μM peptide plus equivalent of 1 M sodium hydroxide, 15° C., 20 minutes, LC/MS peak area
Description: The molecule stability of the cyclic peptide was evaluated by analyzing the alkali-treated cyclic peptide aqueous solution by liquid chromatography mass spectroscopy (LC/MS).
The alkali treatment was carried out by the following method. A 500 μM cyclic peptide aqueous solution was prepared, an equivalent of 1 M sodium hydroxide aqueous solution was added to this aqueous solution, and the resultant mixture was incubated at 15° C. for 20 minutes to obtain an alkali-treated cyclic peptide aqueous solution. The cyclic peptide residual rate was calculated by setting the total area of all peaks of the cyclic peptide before alkali treatment in LC/MS to 100% and determining the proportion of the total area of all peaks in LC/MS of the alkali-treated cyclic peptide aqueous solution, and the molecule stability was evaluated according to the following evaluation standards. It is preferable that the evaluation result satisfies the evaluation standard A, B, or C.
The conditions of the LC/MS used for the evaluation of molecule stability were set as follows. • LC apparatus: Prominence series (pump, column oven, autosampler, detector) (manufactured by Shimadzu Corporation) • MS detector: LC/MS2010EV (manufactured by Shimadzu Corporation) • Column: Cadenza CD-C18, inner diameter 2.0 mm×length 250 mm, particle size: 3 μm (manufactured by Imtakt Corporation) • Eluent A: a solution (pH 3) containing 10 mM ammonium formate as a solute, where the solvent is 100% water. • Eluent B: a solution (pH 3) containing 10 mM ammonium formate as a solute, where the solvent is acetonitrile/water=90/10. • Flow rate: 0.2 mL/min • Injection volume: 4 μL • Gradient: 0% to 30%: Eluent B (0 to 30 minutes), 100%: Eluent B (30 to 40 minutes), 0%: Eluent B (40 to 60 minutes)(B indicates the eluent B) • Column temperature: 45° C. • Ionization method: electrospray ionization (ESI) positive, ESI negative

Chain of human integrin αvβ5 (P06756 31-889 limits assumed): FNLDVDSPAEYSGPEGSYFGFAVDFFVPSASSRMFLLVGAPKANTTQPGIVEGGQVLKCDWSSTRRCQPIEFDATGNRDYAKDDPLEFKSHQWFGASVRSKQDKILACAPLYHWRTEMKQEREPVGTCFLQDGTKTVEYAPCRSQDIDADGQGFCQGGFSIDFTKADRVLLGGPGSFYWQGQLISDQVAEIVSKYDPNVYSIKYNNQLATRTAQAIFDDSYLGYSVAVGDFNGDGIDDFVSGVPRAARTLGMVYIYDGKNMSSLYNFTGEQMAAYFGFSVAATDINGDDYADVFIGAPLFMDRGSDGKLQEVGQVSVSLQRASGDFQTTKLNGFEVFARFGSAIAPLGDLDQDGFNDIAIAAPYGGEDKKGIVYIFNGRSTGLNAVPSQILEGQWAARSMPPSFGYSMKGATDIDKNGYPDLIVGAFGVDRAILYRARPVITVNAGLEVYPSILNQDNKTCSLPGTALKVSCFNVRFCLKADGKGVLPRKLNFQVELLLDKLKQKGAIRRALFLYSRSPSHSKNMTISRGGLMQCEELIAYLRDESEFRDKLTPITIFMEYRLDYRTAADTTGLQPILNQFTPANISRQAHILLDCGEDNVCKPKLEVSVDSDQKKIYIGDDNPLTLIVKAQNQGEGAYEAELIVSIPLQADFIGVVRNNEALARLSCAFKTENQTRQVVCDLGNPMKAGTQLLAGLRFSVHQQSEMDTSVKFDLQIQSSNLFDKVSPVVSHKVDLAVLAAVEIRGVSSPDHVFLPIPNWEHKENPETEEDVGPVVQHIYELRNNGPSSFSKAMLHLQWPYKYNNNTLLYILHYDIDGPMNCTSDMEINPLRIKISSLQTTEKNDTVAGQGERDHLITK
Chain of human integrin αvβ5 (P06756 891-1048 partner limits assumed): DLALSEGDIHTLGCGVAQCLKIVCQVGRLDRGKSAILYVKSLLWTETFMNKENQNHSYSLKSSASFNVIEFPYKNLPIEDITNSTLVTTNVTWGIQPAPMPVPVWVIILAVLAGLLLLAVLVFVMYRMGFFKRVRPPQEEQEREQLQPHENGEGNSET
Chain of human integrin αvβ5 (P18084 24-799): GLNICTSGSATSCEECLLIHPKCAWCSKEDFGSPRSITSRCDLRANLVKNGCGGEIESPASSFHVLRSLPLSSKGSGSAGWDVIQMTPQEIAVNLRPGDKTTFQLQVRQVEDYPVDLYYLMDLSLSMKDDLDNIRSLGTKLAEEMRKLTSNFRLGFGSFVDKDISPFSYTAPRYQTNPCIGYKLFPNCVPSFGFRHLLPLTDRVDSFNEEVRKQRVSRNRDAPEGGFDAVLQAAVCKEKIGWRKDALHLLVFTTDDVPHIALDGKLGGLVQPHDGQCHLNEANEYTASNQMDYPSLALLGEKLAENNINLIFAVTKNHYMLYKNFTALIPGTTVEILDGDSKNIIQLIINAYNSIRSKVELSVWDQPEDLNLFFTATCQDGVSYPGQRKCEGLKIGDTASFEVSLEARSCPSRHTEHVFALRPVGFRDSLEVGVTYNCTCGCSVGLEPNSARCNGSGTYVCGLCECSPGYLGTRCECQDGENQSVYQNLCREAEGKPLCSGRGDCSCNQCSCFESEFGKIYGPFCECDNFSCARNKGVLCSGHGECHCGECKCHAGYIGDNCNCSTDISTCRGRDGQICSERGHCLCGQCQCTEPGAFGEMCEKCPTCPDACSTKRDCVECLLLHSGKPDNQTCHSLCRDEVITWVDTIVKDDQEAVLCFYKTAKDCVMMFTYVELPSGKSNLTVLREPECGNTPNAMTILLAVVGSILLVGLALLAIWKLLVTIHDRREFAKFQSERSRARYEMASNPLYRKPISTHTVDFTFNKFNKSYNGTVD

Kd (human integrin αvβ5)	SMILES	Molecule stability (cyclic peptide residual rate) [1]
< 50 nM	CC[C@H](C)[C@@H]1NC(=O)CSCC[C@@H](C(=O)N[C@@H](CCCCN)C(=O)N[C@@H](CCCCN)C(=O)N[C@@H](CCCCN)C(=O)O)NC(=O)[C@H](Cc2ccccc2)NC(=O)[C@@H]2CCCCNC(=O)CSC[C@H](NC1=O)C(=O)N[C@@H](CCCNC(=N)N)C(=O)NCC(=O)N[C@@H](CC(=O)O)C(=O)N2 [Cyclic peptide 18] ({CH2CO}-ICRGDKF[hCys]KKK-OH; linker 2-6 via X1; thioether N-8)	A (The residual rate of the cyclic peptide is 70% or more.)
50 to 100 nM	CC[C@H](C)[C@@H]1NC(=O)CSC[C@@H](C(=O)N[C@@H](CCCCN)C(=O)N[C@@H](CCCCN)C(=O)N[C@@H](CCCCN)C(=O)O)NC(=O)[C@H](Cc2ccccc2)NC(=O)[C@@H]2CCNC(=O)CSCC[C@H](NC1=O)C(=O)N[C@@H](CCCNC(=N)N)C(=O)NCC(=O)N[C@@H](CC(=O)O)C(=O)N2 [Cyclic peptide 19] ({CH2CO}-I[hCys]RGD[Dab]FCKKK-OH; linker 2-6 via X1; thioether N-8)	A (The residual rate of the cyclic peptide is 70% or more.)
< 50 nM	CC[C@H](C)[C@@H]1NC(=O)CSCC[C@@H](C(=O)N[C@@H](CCCCN)C(=O)N[C@@H](CCCCN)C(=O)N[C@@H](CCCCN)C(=O)O)NC(=O)[C@H](Cc2ccccc2)NC(=O)[C@@H]2CCNC(=O)CSC[C@H](NC1=O)C(=O)N[C@@H](CCCNC(=N)N)C(=O)NCC(=O)N[C@@H](CC(=O)O)C(=O)N2 [Cyclic peptide 20] ({CH2CO}-ICRGD[Dab]F[hCys]KKK-OH; linker 2-6 via X1; thioether N-8)	A (The residual rate of the cyclic peptide is 70% or more.)
< 50 nM	CC[C@H](C)[C@@H]1NC(=O)CSCC[C@@H](C(=O)N[C@@H](CCCCN)C(=O)O)NC(=O)[C@H](Cc2ccccc2)NC(=O)[C@@H]2CCCCNC(=O)CSCC[C@H](NC1=O)C(=O)N[C@@H](CCCNC(=N)N)C(=O)NCC(=O)N[C@@H](CC(=O)O)C(=O)N2 [Cyclic peptide 22] ({CH2CO}-I[hCys]RGDKF[hCys]K-OH; linker 2-6 via X1; thioether N-8)	A (The residual rate of the cyclic peptide is 70% or more.)
< 50 nM	CC[C@H](C)[C@@H]1NC(=O)CSC(C)(C)[C@@H](C(=O)N[C@@H](CCCCN)C(=O)N[C@@H](CCCCN)C(=O)N[C@@H](CCCCN)C(=O)O)NC(=O)[C@H](Cc2ccccc2)NC(=O)[C@@H]2CCSCC(=O)NCCC[C@H](NC1=O)C(=O)N[C@@H](CCCNC(=N)N)C(=O)NCC(=O)N[C@@H](CC(=O)O)C(=O)N2 [Cyclic peptide 23] ({CH2CO}-I[Orn]RGD[hCys]F[Pen]KKK-OH; linker 2-6 via X2; thioether N-8)	A (The residual rate of the cyclic peptide is 70% or more.)
< 50 nM	CC1(C)SCC(=O)N[C@@H](CCC(=O)O)C(=O)N[C@H]2CCCNC(=O)CSCC[C@H](NC(=O)[C@H](CC(=O)O)NC(=O)CNC(=O)[C@H](CCCNC(=N)N)NC2=O)C(=O)N[C@@H](Cc2ccccc2)C(=O)N[C@@H]1C(=O)N[C@@H](CCCCN)C(=O)N[C@@H](CCCCN)C(=O)N[C@@H](CCCCN)C(=O)O [Cyclic peptide 24] ({CH2CO}-E[Orn]RGD[hCys]F[Pen]KKK-OH; linker 2-6 via X2; thioether N-8)	A (The residual rate of the cyclic peptide is 70% or more.)
< 50 nM	N=C(N)NCCC[C@@H]1NC(=O)[C@@H]2CCSCC(=O)NCCCC[C@H](NC(=O)[C@H](CC(=O)O)NC(=O)CNC1=O)C(=O)N[C@@H](Cc1ccccc1)C(=O)N[C@H](C(=O)N[C@@H](CCCCN)C(=O)N[C@@H](CCCCN)C(=O)N[C@@H](CCCCN)C(=O)O)CCSCC(=O)N[C@@H](Cc1ccc(O)cc1)C(=O)N2 [Cyclic peptide 25] ({CH2CO}-Y[hCys]RGDKF[hCys]KKK-OH; linker 2-6 via X1; thioether N-8)	A (The residual rate of the cyclic peptide is 70% or more.)
< 50 nM	CC(C)C[C@@H]1NC(=O)CSCC[C@@H](C(=O)N[C@@H](CCCCN)C(=O)N[C@@H](CCCCN)C(=O)N[C@@H](CCCCN)C(=O)O)NC(=O)[C@H](Cc2ccccc2)NC(=O)[C@@H]2CCCCNC(=O)CSCC[C@H](NC1=O)C(=O)N[C@@H](CCCNC(=N)N)C(=O)NCC(=O)N[C@@H](CC(=O)O)C(=O)N2 [Cyclic peptide 26] ({CH2CO}-L[hCys]RGDKF[hCys]KKK-OH; linker 2-6 via X1; thioether N-8)	A (The residual rate of the cyclic peptide is 70% or more.)
< 50 nM	C[C@@H](O)[C@@H]1NC(=O)CSCC[C@@H](C(=O)N[C@@H](CCCCN)C(=O)N[C@@H](CCCCN)C(=O)N[C@@H](CCCCN)C(=O)O)NC(=O)[C@H](Cc2ccccc2)NC(=O)[C@@H]2CCCCNC(=O)CSCC[C@H](NC1=O)C(=O)N[C@@H](CCCNC(=N)N)C(=O)NCC(=O)N[C@@H](CC(=O)O)C(=O)N2 [Cyclic peptide 27] ({CH2CO}-T[hCys]RGDKF[hCys]KKK-OH; linker 2-6 via X1; thioether N-8)	A (The residual rate of the cyclic peptide is 70% or more.)
< 50 nM	CC(C)[C@@H]1NC(=O)CSCC[C@@H](C(=O)N[C@@H](CCCCN)C(=O)N[C@@H](CCCCN)C(=O)N[C@@H](CCCCN)C(=O)O)NC(=O)[C@H](Cc2ccccc2)NC(=O)[C@@H]2CCCCNC(=O)CSCC[C@H](NC1=O)C(=O)N[C@@H](CCCNC(=N)N)C(=O)NCC(=O)N[C@@H](CC(=O)O)C(=O)N2 [Cyclic peptide 28] ({CH2CO}-V[hCys]RGDKF[hCys]KKK-OH; linker 2-6 via X1; thioether N-8)	A (The residual rate of the cyclic peptide is 70% or more.)
< 50 nM	N=C(N)NCCC[C@@H]1NC(=O)[C@@H]2CCSCC(=O)NCCCC[C@H](NC(=O)[C@H](CC(=O)O)NC(=O)CNC1=O)C(=O)N[C@@H](Cc1ccccc1)C(=O)N[C@H](C(=O)N[C@@H](CCCCN)C(=O)N[C@@H](CCCCN)C(=O)N[C@@H](CCCCN)C(=O)O)CCSCC(=O)N[C@@H](CC(=O)O)C(=O)N2 [Cyclic peptide 29] ({CH2CO}-D[hCys]RGDKF[hCys]KKK-OH; linker 2-6 via X1; thioether N-8)	A (The residual rate of the cyclic peptide is 70% or more.)
< 50 nM	N=C(N)NCCC[C@@H]1NC(=O)[C@@H]2CCSCC(=O)NCCCC[C@H](NC(=O)[C@H](CC(=O)O)NC(=O)CNC1=O)C(=O)N[C@@H](Cc1ccccc1)C(=O)N[C@H](C(=O)N[C@@H](CCCCN)C(=O)N[C@@H](CCCCN)C(=O)N[C@@H](CCCCN)C(=O)O)CCSCC(=O)N[C@@H](CCC(=O)O)C(=O)N2 [Cyclic peptide 30] ({CH2CO}-E[hCys]RGDKF[hCys]KKK-OH; linker 2-6 via X1; thioether N-8)	A (The residual rate of the cyclic peptide is 70% or more.)
